In patent US8889704B2 (Array BioPharma Inc., priority 2011, dated 2014) one finds IC50 data, which are given here for 26 compounds.

pIC50: −log10 of the molar value. Structures can show the parent of a compound that is named as a salt.

Holding throughout (assay type): biochemical
Assay [1] concerns the target recombinant rat PIM-3 (Rattus norvegicus, UniProt O70444). Briefly: PIM-3 Assay (as Example A). To be noted: averaged IC50; 30 μM ATP, 3.75 μM PIM2tide, 0.5 nM PIM-3. As for the experimental part:
(§1) The assay for the determination of PIM-1 activity is based on the incorporation of [^33P]PO4 from [γ-^33P]ATP into PIM2tide substrate and capture of the radiolabeled peptide onto a Whatman P81 (phosphocellulose) filter plate. The amount of radiolabeled product is then measured by liquid scintillation counting. The final buffer conditions were as follows: 20 mM K^+MOPS, pH 7.4, 10 mM MgCl2, 0.005% Tween-20, 1 mM DTT. Assay mixtures contained 35 μM [γ-^33P]ATP (20 μCi/mL), 7.5 μM PIM2tide and 0.25 nM PIM-1 in a total volume of 50 μL. Incubations were carried out for 60 min at 22° C. and quenched with 75 μL of 200 mM H3PO4, filtered through a Whatman P81 plate and washed (1×200 μL and 5×100 μL) with 200 mM H3PO4. Fifty μL of liquid scintillation cocktail were then added per well, and the plate was counted for 30 s/well using a TopCount NXT.
(§2) Compounds were prepared at 50× the final concentration in DMSO by conducting 3-fold serial dilutions from a 500-μM intermediate dilution to give a 10-point dosing curve having a high dose of 10 μM. One-μL aliquots of these were then transferred to the assay mixtures above to give a final concentration of DMSO of 2%. A standard or reference compound was typically included on each assay plate to validate that plate. For each plate, percent of control (POC) values were calculated for each well. IC50 values were estimated from the POC values using a standard 4-parameter logistic model. The IC50 is defined as the concentration of inhibitor at which the POC equals 50 for the fitted curve.
Assay was performed as described in Example A, using 30 μM [γ-^33P]ATP (20 μCi/mL), 3.75 μM PIM2tide and 0.5 nM recombinant rat PIM-3 in place of PIM-1.

Assay [2] concerns the target PIM-1 (Homo sapiens, UniProt P11309). Briefly: Enzyme PIM-1 Assay ([33P]ATP incorporation into PIM2tide, filter plate). The note with it: averaged IC50; 35 μM ATP, 7.5 μM PIM2tide, 0.25 nM PIM-1, 60 min at 22° C. As for the experimental part:
as §1, §2

Assay [3] addresses T1, GST-tagged recombinant full-length human Pim-2 (Homo sapiens, UniProt Q9P1W9).
T1 construct: GST-tagged recombinant full-length human Pim-2; GST
The experiment in a line: PIM-2 Assay (as Example A). To be noted: averaged IC50; 4 μM ATP, 1.0 μM PIM2tide, 1.5 nM Pim-2. As for the experimental part:
as §1, §2
Assay was performed as described in Example A, using 4 μM [γ-^33P]ATP (20 μCi/mL), 1.0 μM PIM2tide and 1.5 nM GST-tagged recombinant full-length human Pim-2 in place of PIM-1.

T1 sequence (Q9P1W9 whole entry): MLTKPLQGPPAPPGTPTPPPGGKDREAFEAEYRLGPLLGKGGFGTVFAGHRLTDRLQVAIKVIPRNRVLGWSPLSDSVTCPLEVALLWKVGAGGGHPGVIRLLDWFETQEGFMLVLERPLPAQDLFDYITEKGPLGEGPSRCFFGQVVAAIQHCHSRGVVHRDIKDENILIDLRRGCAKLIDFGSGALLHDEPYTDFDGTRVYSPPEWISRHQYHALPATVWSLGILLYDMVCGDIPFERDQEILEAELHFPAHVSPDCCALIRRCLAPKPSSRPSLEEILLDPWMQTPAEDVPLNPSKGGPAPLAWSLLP
Sequence of PIM-1 (P11309 whole entry, species assumed): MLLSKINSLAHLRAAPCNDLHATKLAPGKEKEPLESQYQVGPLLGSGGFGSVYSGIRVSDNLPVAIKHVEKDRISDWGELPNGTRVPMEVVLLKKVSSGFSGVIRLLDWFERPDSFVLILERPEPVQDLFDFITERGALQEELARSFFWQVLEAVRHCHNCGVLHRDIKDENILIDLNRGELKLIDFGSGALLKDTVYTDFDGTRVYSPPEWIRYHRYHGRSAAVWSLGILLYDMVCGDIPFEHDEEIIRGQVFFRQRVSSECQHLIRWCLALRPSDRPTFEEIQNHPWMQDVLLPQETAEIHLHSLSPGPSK

What is called pIC50 is the negative decadic logarithm of the IC50, by convention in mol/L. For the compound `N[C@H]1CCN([C@@H](c2ccc3nnc(-c4ccc5cccc(OCC6CC6)c5n4)n3c2)C(F)(F)F)C1` (single isomer, unassigned) [Example 10, dihydrochloride], the results for the pIC50 in assay [1], in assay [2] and in assay [3] were 7.92, 8.74 and 6.51, respectively.

`N[C@H]1CCN([C@H](c2ccc3nnc(-c4ccc5cccc(OCC6CC6)c5n4)n3c2)C(F)(F)F)C1` (single isomer, unassigned) [Example 11, dihydrochloride]: the values for the pIC50 in assay [1], in assay [2] and in assay [3] were 8.96, 9.70 and 7.12, respectively.

For the compound `N[C@H]1CCN([C@@H](c2ccc3nnc(-c4ccc5ccc(C6CC6)cc5n4)n3c2)C(F)(F)F)C1` (single isomer, unassigned) [Example 12], the pIC50 in assay [1] is 8.96; in assay [2], 9.40; in assay [3], 7.29.

Turning to `N[C@H]1CCN([C@H](c2ccc3nnc(-c4ccc5ccc(C6CC6)cc5n4)n3c2)C(F)(F)F)C1` (single isomer, unassigned) [Example 13], the figures for the negative logarithm of the IC50 (pIC50) in assay [1], in assay [2] and in assay [3] were 9.00, 9.51 and 6.92, respectively.

As to `Cn1cc(-c2ccc3ccc(-c4nnc5ccc([C@H](N6CC[C@H](N)C6)C(F)(F)F)cn45)nc3c2)cn1` (single isomer, unassigned) [Example 14, tri-hydrochloride], the values for the pIC50 in assay [1], in assay [2] and in assay [3] were 9.40, 9.82 and 7.12, respectively.

Regarding `Cn1cc(-c2ccc3ccc(-c4nnc5ccc([C@@H](N6CC[C@H](N)C6)C(F)(F)F)cn45)nc3c2)cn1` (single isomer, unassigned) [Example 15, tri-hydrochloride], the pIC50 in assay [1] is 9.52; in assay [2] it was 10.05; in assay [3], 7.23.

Turning to `N[C@@H]1CCN([C@H](c2ccc3nnc(-c4ccc5cccc(OCC6CC6)c5n4)n3c2)C(F)(F)F)C1` (single isomer, unassigned) [Example 22], the results for the pIC50 in assay [1], in assay [2] and in assay [3] were 8.54, 9.60 and 6.84, respectively.

Turning to `N[C@@H]1CCN([C@@H](c2ccc3nnc(-c4ccc5cccc(OCC6CC6)c5n4)n3c2)C(F)(F)F)C1` (single isomer, unassigned) [Example 23], the pIC50 in assay [1] was 7.42; in assay [2], 8.55; in assay [3], 6.39.

With `CC(C)Oc1cccc2ccc(-c3nnc4ccc(C(N5C[C@@H](O)[C@H](O)C5)C(F)(F)F)cn34)nc12` (single isomer, unassigned) [Example 82], the negative-log IC50 (pIC50) is 7.52 in assay [1], 8.95 in assay [2] and less than 7.00 in assay [3].

Turning to `CC(C)Oc1cccc2ccc(-c3nnc4ccc([C@@H](N5CC[C@@](N)(CF)C5)C(F)(F)F)cn34)nc12` (single isomer, unassigned) [Example 154, dihydrochloride], the pIC50 was 8.38 in assay [1], 9.24 in assay [2] and less than 7.00 in assay [3].

As to `CC(C)Oc1cccc2ccc(-c3nnc4ccc([C@@H](N5CC[C@](N)(CF)C5)C(F)(F)F)cn34)nc12` (single isomer, unassigned) [Example 155, dihydrochloride], the pIC50 in assay [1] is 8.89; in assay [2], 9.47; in assay [3], 7.35.

As for `COc1cccc2ccc(-c3nnc4ccc([C@@H](N5CC[C@@](N)(CF)C5)C(F)(F)F)cn34)nc12` (single isomer, unassigned) [Example 169], the pIC50 in assay [1] is 7.44; in assay [2], 8.18; in assay [3], less than 7.00.

As to `COc1cccc2ccc(-c3nnc4ccc([C@@H](N5CC[C@](N)(CF)C5)C(F)(F)F)cn34)nc12` (single isomer, unassigned) [Example 170], the pIC50 in assay [1] was 8.21; in assay [2], 9.02; in assay [3], less than 7.00.

As to `COc1cccc2ccc(-c3nnc4ccc([C@@H](N5CCC(C)(O)C5)C(F)(F)F)cn34)nc12` (single isomer, unassigned; diastereomer 1) [Example 193, hydrochloride], the pIC50 is 7.17 in assay [1], 7.89 in assay [2] and less than 6.00 in assay [3].

As to `CC1(O)CCN([C@H](c2ccc3nnc(-c4ccc5cccc(C(C)(C)C)c5n4)n3c2)C(F)(F)F)C1` (single isomer, unassigned; diastereomer 1) [Example 195, hydrochloride], the values for the pIC50 in assay [1], in assay [2] and in assay [3] were 7.28, 7.67 and less than 6.00, respectively.

As for `CC(C)Oc1cccc2ccc(-c3nnc4ccc([C@H](N5CCC(C)(O)C5)C(F)(F)F)cn34)nc12` (single isomer, unassigned; diastereomer 1) [Example 199], the pIC50 in assay [1] was 7.52; in assay [2], 7.73; in assay [3] it was less than 6.00.

Take `Cn1cc(-c2ccc3ccc(-c4nnc5ccc([C@H](N6CCC(C)(O)C6)C(F)(F)F)cn45)nc3c2)cn1` (single isomer, unassigned; diastereomer 1) [Example 200]: the pIC50 in assay [1] is 8.47; in assay [2] it was 8.73; in assay [3] it was 6.86.

With `CC(C)Oc1cc(F)cc2ccc(-c3nnc4ccc([C@H](N5CCC(C)(O)C5)C(F)(F)F)cn34)nc12` (single isomer, unassigned; diastereomer 1) [Example 202, hydrochloride], the negative logarithm of the IC50 (pIC50) in assay [1] was 8.10; in assay [2] it was 8.18; in assay [3], less than 6.00.

On to `CCC1(N)CCN([C@H](c2ccc3nnc(-c4ccc5cccc(OC)c5n4)n3c2)C(F)(F)F)C1` (single isomer, unassigned; diastereomer 1) [Example 242, dihydrochloride], for which the pIC50 in assay [1] is 7.68; in assay [2], 8.38; in assay [3], less than 6.00.

For `CCOc1cc2nc(-c3nnc4ccc([C@@H](N5CCC(N)(CC)C5)C(F)(F)F)cn34)ccc2cc1F` (single isomer, unassigned; diastereomer 1) [Example 243, dihydrochloride], the pIC50 in assay [1] was 8.68; in assay [2] it was 9.27; in assay [3] it was 6.14.

Turning to `CCC1(N)CCN([C@@H](c2ccc3nnc(-c4ccc5cccc(OC)c5n4)n3c2)C(F)(F)F)C1` (single isomer, unassigned; diastereomer 1) [Example 250, dihydrochloride], the pIC50 in assay [1] was 7.96; in assay [2], 8.56; in assay [3] it was 6.06.

Consider `CCOc1cc2nc(-c3nnc4ccc([C@H](N5CCC(N)(CC)C5)C(F)(F)F)cn34)ccc2cc1F` (single isomer, unassigned; diastereomer 1) [Example 251, dihydrochloride], for which the pIC50 in assay [1] was 9.10; in assay [2], 9.12; in assay [3], 6.99.

For `CC(C)(C)OC(=O)N[C@@H]1CCN([C@@H](c2ccc3nnc(-c4ccc5ccc(C(=O)O)cc5n4)n3c2)C(F)(F)F)C1` [Example 85, 2-(6-((S)-1-((R)-3-(tert-butoxycarbonylamino)pyrrolidin-1-yl)-2,2,2-trifluoroethyl)-[1,2,4]triazolo[4,3-a]pyridin-3-yl)quinoline-7-carboxylic acid], the pIC50 in assay [1] is 7.74.

Take `COc1cc(F)cc2ccc(-c3nnc4ccc([C@@H](N5CC[C@H](N)C5)C(F)(F)F)cn34)nc12` [Example 115, (S)-1-((R)-2,2,2-trifluoro-1-(3-(6-fluoro-8-methoxyquinolin-2-yl)-[1,2,4]triazolo[4,3-a]pyridin-6-yl)ethyl)pyrrolidin-3-amine hydrochloride]: the figures for the negative-log IC50 (pIC50) in assay [2] and in assay [3] were 9.54 and less than 7.00, respectively.

With `CCOc1cc2nc(-c3nnc4ccc([C@@H](N5CC[C@H](N)C5)C(F)(F)F)cn34)ccc2cc1F` [Example 133, (S)-1-((R)-1-(3-(7-ethoxy-6-fluoroquinolin-2-yl)-[1,2,4]triazolo[4,3-a]pyridin-6-yl)-2,2,2-trifluoroethyl)pyrrolidin-3-amine hydrochloride], the figures for the pIC50 in assay [2] and in assay [3] were 9.80 and 7.11, respectively.

Consider `COCCc1cc2nc(-c3nnc4ccc([C@H](N5CC[C@](C)(N)C5)C(F)(F)F)cn34)ccc2cc1F` [Example 311, (S)-3-methyl-1-((S)-2,2,2-trifluoro-1-(3-(6-fluoro-7-(2-methoxyethyl)quinolin-2-yl)-[1,2,4]triazolo[4,3-a]pyridin-6-yl)ethyl)pyrrolidin-3-amine], for which the negative-log IC50 (pIC50) in assay [3] is 7.30.
